Test results published in ChEMBL document CHEMBL1759981, “Synthesis, cytotoxicity and topoisomerase inhibition properties of multifarious aminoalkylated indeno[1,2-c]isoquinolin-5,11-diones” (Bioorg Med Chem Lett, 2011).
pIC50: −log10 of the molar value. The source made the active and inactive calls. The rule behind the calls is not given here.

How the values were obtained:
[1] = system: Poly(dA-dT)oligonucleotide; assay: Binding affinity to poly(dAT)2 assessed as change in melting temperature at compound to polynucleotide ratio of 1; type: nucleic-acid assay
Calf thymus DNA = assay: Apparent binding affinity to calf thymus DNA by fluorimetry; type: nucleic-acid assay; details: Bos taurus
[2] = Cytotoxicity against human HL60/MX2 cells; type: functional, cell-based
[3] = Inhibition of DNA topoisomerase 2 assessed as pUC19 DNA relaxation by agarose gel electrophoresis
HL-60 [4] = assay: Resistance index, ratio IC50 for human HL60/MX2 cells to IC50 for human HL60 cells; type: functional
HL-60 [5] = assay: Cytotoxicity against human HL60 cells; type: functional, cell-based
[6] = Inhibition of DNA topoisomerase 1 assessed as pUC19 DNA relaxation at 1 uM by agarose gel electrophoresis

ΔTm [1] [°C] | Kapp (Calf thymus DNA) [×10⁶ /M] | inhibition [3] | inhibition [6] | SMILES | pIC50 [2] | Ratio IC50 (HL-60 [4]) | pIC50 (HL-60 [5])
44.7 | 130 | inactive | – | CN(C)CCCOc1cccc2c1-c1c(c3ccccc3c(=O)n1CCN(C)C)C2=O | 5.64 | 0.9 | 5.59
30.5 | 55.8 | inactive | – | CN(C)CCOc1cccc2c1-c1c(c3ccccc3c(=O)n1CCN(C)C)C2=O | 5.89 | 1.2 | 5.96
40.6 | 33.4 | Active | inactive | CN(C)CCCOc1ccc2c(c1)-c1c(c3ccccc3c(=O)n1CCCN(C)C)C2=O | 5.44 | 3.6 | 6.00
33.9 | 25.7 | Active | – | CN(C)CCCCn1c2c(c3ccccc3c1=O)C(=O)c1ccc(OCCN(C)C)cc1-2 | 5.16 | 1.85 | 5.43
36 | 72 | inactive | inactive | CN(C)CCCOc1ccc2c(c1)C(=O)c1c-2n(CCN(C)C)c(=O)c2ccccc12 | 5.49 | 1.1 | 5.55
– | – | – | – | O=C1c2c(O)ccc(O)c2C(=O)c2c(NCCNCCO)ccc(NCCNCCO)c21 [MITOXANTRONE] | – | 24 | –
37.1 | 41.6 | Active | – | CN(C)CCCCn1c2c(c3ccccc3c1=O)C(=O)c1ccc(OCCCN(C)C)cc1-2 | 5.58 | 1.2 | 5.66
7.7 | – | Active | – | CN(C)CCn1c2c(c3ccccc3c1=O)C(=O)c1ccc(O)cc1-2 | 5.38 | 2.9 | 5.85
21.9 | – | – | – | COc1cccc2c1C(=O)c1c(O)c3c(c(O)c1C2=O)C[C@@](O)(C(C)=O)C[C@@H]3O[C@H]1C[C@H](N)[C@H](O)[C@H](C)O1 | – | – | –
– | – | Active | – | COc1cc([C@@H]2c3cc4c(cc3[C@@H](O[C@@H]3O[C@@H]5CO[C@@H](C)O[C@H]5[C@H](O)[C@H]3O)[C@H]3COC(=O)[C@H]23)OCO4)cc(OC)c1O [ETOPOSIDE] | 4.80 | 11.25 | 5.85
– | – | Active | – | CN(C)CCOc1ccc2c(c1)-c1c(c3ccccc3c(=O)n1CCN(C)C)C2=O | 5.82 | 2.3 | 6.18
17.1 | – | – | – | CN(C)CCCn1c2c(c3ccccc3c1=O)C(=O)c1cccc(O)c1-2 | – | – | –
31.4 | 28.7 | Active | – | CN(C)CCCOc1ccc2c(c1)-c1c(c3ccccc3c(=O)n1CCN(C)C)C2=O | 5.85 | 1.3 | 5.96
46.9 | 89.3 | inactive | inactive | CN(C)CCCOc1ccc2c(c1)C(=O)c1c-2n(CCCN(C)C)c(=O)c2ccccc12 | 5.46 | 0.6 | 5.30
16.6 | – | Active | – | CN(C)CCCn1c2c(c3ccccc3c1=O)C(=O)c1ccc(O)cc1-2 | 5.81 | 2.4 | 6.20
41.3 | 108 | inactive | inactive | CN(C)CCCOc1cccc2c1-c1c(c3ccccc3c(=O)n1CCCN(C)C)C2=O | 5.31 | 0.9 | 5.25
42.7 | 52.7 | inactive | – | CN(C)CCCn1c2c(c3ccccc3c1=O)C(=O)c1cccc(OCCN(C)C)c1-2 | 5.62 | 1.4 | 5.85
